What was measured:
[1] = test system: CD4+ T cells; experiment: Immunological screening in vitro in CD4+ T cells (flow cytometry); format: cell-based, C57BL/6 mice; settings: for significance of change in IFNγ/TNFα production relative to vehicle treated control: tested at 100 nM and 1 μM, P<0.05; for reduction in IFNγ production: 24 h, anti-CD3/CD28, PMA/ionomycin last 6 h
Excerpt: (§1) Cell culture. Spleens were excised from C57BL/6 mice. Spleens were crushed between the frosted ends of microscope slides and filtered to provide a cellular suspension. Red blood cells were lysed through hypotonic lysis. Remaining cells were washed and filtered. CD4+ T cells were enriched within the suspension using magnetic sorting based negative selection. Cells were collected and plated within 96 well plates coated with anti-CD3/CD28 and cultured in the presence of PX-02, PX-04, PX-07, PX-08 and PX-09 at 0, 0.1 or 1 micromolar for 24 h. During the last 6 h of culture, cells were stimulated with phorbol 12-myristate-13-acetate (PMA) and ionomycin.
(§2) Immunological analysis. Cells were collected from 96 well plates and stained with a cocktail of antibodies for immunophenotyping by flow cytometry. Culture supernatant was collected and assayed for cytokine concentrations by cytometric bead array. Data was captured on a BD FACS Celesta and analyzed using FACSDiva.

[2] = test system: rats with collagen-induced arthritis; experiment: Collagen-induced arthritis in rats; format: in vivo, Lewis rats
Description: (§3) Models. Six-week-old C57Bl/6 mice were immunized with 200 μg of chicken collagen emulsified in complete Freund's adjuvant by intradermal injections at the base of the tail (n=8). Mice were treated with 5 mg/kg of PX-07 or vehicle daily for four weeks. Five- to six-week-old Lewis rats (n=8) were immunized with 200 μg of bovine collagen emulsified in incomplete Freund's adjuvant by intradermal injection into the base of the tail. A second boosting immunization was given after one week. PX-04 was administered daily at 2 or 20 mg/kg for 3 weeks.
(§4) Immunological analysis. Spleens were excised from mice and inguinal lymph nodes were excised from rats. Tissues were crushed and filtered to provide a cellular suspension. Red blood cells were lysed. Cells were labeled with mixtures of extracellular (CD45, CD3, CD4, CD8, B220, CD19, CD138, CD21, CD24, CD1d, CD11b, CD86, CD80) and intracellular (BCL6, IL21, IL10, TNF) antibodies in a sequential live staining in 96-well plates in preparation for flow cytometry. Data was captured on a BD FACS Celesta and analyzed using FACSDiva.

[3] = test system: NZB/W F1 mice; experiment: NZB/W F1 model of SLE; format: in vivo; settings: 10 mg/kg daily oral
Description: NZB/W F1 model. Twenty-four-week-old, female NZB/W F1 mice were randomized into vehicle or PX-04 treated arms based on baseline urine protein levels (n ═10). PX-04 was administered daily at 10 mg/kg for 12 weeks. Mice will be weighed on a weekly basis to update dosage formulation. Dosage will be calculated based off mean body weights.
Immunological analysis. Urine was collected for assay for protein content to test for kidney function at baseline, 6, and 12 weeks of treatment. Spleens were excised, crushed and filtered to provide a cellular suspension. Red blood cells were lysed. Cells were labeled with mixtures of extracellular (CD45, CD3, CD4) and intracellular (IL10) antibodies in a sequential live staining in 96-well plates in preparation for flow cytometry. Data was captured on a BD FACS Celesta and analyzed using FACSDiva.

[4] = test system: bone marrow-derived macrophages (BMDMs); experiment: Immunological screening in vitro in LPS-challenged bone marrow-derived macrophages (qRT-PCR, Luminex); format: cell-based, C57BL/6 mice; settings: 0.1 and 1 micromolar, dose dependent; for IFNγ in the supernatant / IL-6 in the supernatant / TNF in the supernatant / concentration of IL-10 in the supernatant: Luminex, LPS 6 h; for IL-10 expression by RNA / expression of TNF by RNA: qRT-PCR, LPS 2 h
Description: Cell culture. Bone marrow was flushed from the femur and tibia of C57BL/6 mice. Bone marrow was then resuspended and filtered to provide a cellular suspension. Red blood cells were lysed through hypotonic lysis. Remaining cells were washed and filtered. Isolated cells were incubated in the presence of M-CSF for 7 days to differentiate cells into macrophages. Cells were harvested, plated within 24 well plates and cultured in the presence of PX-04 or PX-07 at 0, 0.1 or 1 micromolar for 12 h. During the last 2-6 h of culture, cells were stimulated with lipopolysaccharide. After stimulation for 2 h, cells were collected for the isolation of RNA. Gene expression was quantified by qRT-PCR. After stimulation for 6 h, supernatant was collected for detection of cytokines by Luminex.

[5] = test system: CD4+ T cells deficient in PLXDC2; experiment: Specificity test in PLXDC2 deficient CD4+ T cells; format: cell-based; settings: 100 nM or 1 μM; for IFNγ in the absence of PLXDC2: FIG. 4A; for TNFα in the absence of PLXDC2: FIG. 4B
Description: FIGS. 4A and 4B. Immunological validation of PX-04 and PX-07 specificity in CD4+ T cells. Percentages of IFNγ+(FIG. 4A) and TNFα+ (FIG. 4B) CD4+ T cells deficient in PLXDC2 were measured by flow cytometry after in vitro treatment of cells with PX compounds at concentrations of 0.1 and 1 micromolar. Statistical significance (P<0.05) is marked by asterisks.
as §1, §2
To determine the specificity of response to the PLXDC2 receptor, PX-04 and PX-07 were tested further in PLXDC2 deficient cells.

[6] = test system: mice challenged with DSS; experiment: DSS model of colitis (acute IBD model); format: in vivo
Description: DSS model. Mice were given DSS in drinking water for seven days to induce disruption of the epithelial layer. At project initiation, mice were 8 weeks of age and began dosing 24 hours after being placed on DSS. Mice were weighed and scored daily for symptoms of disease (diarrhea, rectal bleeding, rectal inflammation, overall behavior). PX-04 was prepared within a 0.5% methylcellulose (12-15 cP) solution. Dosage used was 20 mg/kg delivered once daily. Dosage was calculated based off mean body weights for each gender. Oral dosage was delivered by orogastric gavage of dosage in 0.2 mL volume. Flow Cytometry. Colons were collected into RPMI/FBS buffer containing collagenase (300 U/mL) and DNase (50 U/mL) for digestion. Tissues were digested for 60 minutes under stirring at 37° C. Resultant cellular suspensions were filtered through 100 μm strainers, centrifuged (300×g, 8 min), and washed in fresh RPMI. Following filtration of the resulting single cell suspensions, immune cells were purified by Percoll gradient of cell-containing 40% Percoll overlayed onto 70% Percoll solution. After centrifugation, interphase was collected and washed to obtain enriched colonic lamina propria cell fractions. Cells were labeled with mixtures of extracellular (CD45, CD3, CD4, CD8, CD19, NK1.1, CD25, F4/80, CD11b, Gr1, CX3CR1, CD64) and intracellular (Tbet, RORγT, FOXP3, IFNγ, IL17, IL10) antibodies in a sequential live staining in 96-well plates. Data was acquired using a FACS Celesta flow cytometer with FACSDiva software.

[7] = test system: DBA/2 mice injected with STZ; experiment: STZ model of diabetic nephropathy; format: in vivo; settings: daily oral gavage; for albumin/creatinine ratio in urine: 12 weeks of treatment
Description: STZ models. Streptozotocin (STZ) can be used to induce diabetes in both rats and mice. Mice were used for the assessment of nephropathy. DBA/2 mice were injected with 40 mg/kg STZ by intraperitoneal injection for 5 consecutive days. Mice were randomized to vehicle- or PX-04-treated arms after confirmation of diabetes on day 10 (n=12). PX-04 was administered daily for 12 weeks by oral gavage after a damage accrual stage. Separately, mice were randomized to vehicle- or PX-07-treated arms after confirmation of diabetes on day 10 (n=8). PX-07 was administered daily for 12 weeks by oral gavage after a damage accrual stage.
Kidney function. Kidney function was assessed by collection of urine and histological assessment of kidneys. Urine was assayed for albumin/creatinine ratio. Kidneys were scored using a composite scoring method (0-9) encompassing glomerular area, mesangial expansion, and renal fibrosis.

[8] = test system: mice with collagen-induced arthritis; experiment: Collagen-induced arthritis in mice; format: in vivo, C57Bl/6 mice; settings: 5 mg/kg daily oral, four weeks
Description: as §3, §4

[9] = 2 and 20 mg/kg daily oral, 3 weeks, relative to vehicle
[10] = 20 mg/kg oral, colonic lamina propria, day 7

O=C(Nc1ccccc1)c1nc(-c2cccc(Oc3ccccc3)c2)c[nH]1 [PX-02, N-Phenyl-4-(m-phenoxyphenyl)-1H-imidazole-2-carboxamide]
significance of change in IFNγ/TNFα production relative to vehicle treated control [1]: only induced significant changes at 1 μM

O=C(Nc1ccc2c(c1)COC2)c1ncc(-c2cccc(Oc3ccccc3)c2)[nH]1 [PX-04, N-(1,3-Dihydro-5-isobenzofuranyl)-5-(m-phenoxyphenyl)-1H-imidazole-2-carboxamide]
histological severity of disease in hind ankles (joint space, cartilage erosion, leukocytic infiltration, angiogenesis) ([2]; 2 mg/kg oral, relative to vehicle): reduced severity of disease | gene expression of CXCL1 within the synovium [2, 9]: reduced | gene expression of IL-1β within the synovium [2, 9]: reduced | gene expression of IL-6 within the synovium [2, 9]: reduced | ratio of TNF+ to IL10+ cells within CD4+ T cell fraction, inguinal lymph node ([2]; daily oral gavage, 3 weeks): decreased | ratio of TNF+ to IL10+ cells within myeloid cell fraction, inguinal lymph node ([2]; daily oral gavage, 3 weeks): decreased | proportion of splenic CD4+IL10+ T cells relative to vehicle-treated mice ([3]; after 12 weeks): increased proportion | proteinuria relative to baseline on average ([3]; at 12 weeks of treatment): slight improvement | proteinuria grade ([3]; over 12 weeks): protected mice from the worsening | IFNγ in the supernatant [4]: greatly suppressed | IL-6 in the supernatant [4]: greatly suppressed | TNF in the supernatant [4]: greatly suppressed | concentration of IL-10 in the supernatant [4]: higher | IL-10 expression by RNA [4]: slight increase | expression of TNF by RNA [4]: inhibited | IFNγ in the absence of PLXDC2 [5]: no difference from vehicle | TNFα in the absence of PLXDC2 [5]: no difference from vehicle | cumulative disease activity ([6]; 20 mg/kg once daily oral gavage, 7 days of DSS): decreased | Th17 cells in the colon [6, 10]: greatly decreased | proportion of CD4+ T cells with IFNγ production [6, 10]: lower proportion | proportion of NK cells with IFNγ production [6, 10]: lower proportion | proportion of TNF producing dendritic cells [6, 10]: decreased | regulatory CD4+ T cells in the colon [6, 10]: slight increase | reduction in IFNγ production ([1]; 100 nM): ~55% | reduction in IFNγ production ([1]; 1 μM): ~80% | significance of change in IFNγ/TNFα production relative to vehicle treated control [1]: significant decrease at both tested concentrations | albumin/creatinine ratio in urine [7]: significantly reduced

Cn1cccc(NC(=O)c2ncc(-c3cccc(Oc4ccccc4)c3)[nH]2)c1=O [PX-07, N-(1-Methyl-2-oxo-1H-pyrid-3-yl)-5-(m-phenoxyphenyl)-1H-imidazole-2-carboxamide]
IFNγ in the supernatant [4]: greatly suppressed | IL-6 in the supernatant [4]: greatly suppressed | TNF in the supernatant [4]: greatly suppressed | concentration of IL-10 in the supernatant [4]: higher | IL-10 expression by RNA [4]: slight increase | expression of TNF by RNA [4]: inhibited | IFNγ in the absence of PLXDC2 [5]: no difference from vehicle | TNFα in the absence of PLXDC2 [5]: no difference from vehicle | reduction in IFNγ production ([1]; 100 nM): ~55% | reduction in IFNγ production ([1]; 1 μM): ~80% | significance of change in IFNγ/TNFα production relative to vehicle treated control [1]: significant decrease at both tested concentrations | proportion of CD1d+T2-MZP B cells in the spleen [8]: increased | proportion of T follicular helper cells (CD4+IL21+BCL6+) in the spleen [8]: decreased | albumin/creatinine ratio in urine [7]: significantly reduced | histological score of kidney damage (composite 0-9) ([7]; after 12 weeks of treatment): significantly reduced

O=C(Nc1ccc[nH]c1=O)c1ncc(-c2cccc(Oc3ccccc3)c2)[nH]1 [PX-08, N-(2-Oxo-1H-pyrid-3-yl)-5-(m-phenoxyphenyl)-1H-imidazole-2-carboxamide]
significance of change in IFNγ/TNFα production relative to vehicle treated control [1]: significant decrease at both tested concentrations

O=C(O)c1cccc(NC(=O)c2ncc(-c3cccc(Oc4ccccc4)c3)[nH]2)c1 [PX-09, m-[5-(m-Phenoxyphenyl)-1H-imidazol-2-ylcarbonylamino]benzoic acid]
significance of change in IFNγ/TNFα production relative to vehicle treated control [1]: significant decrease at both tested concentrations

Reference: patent US11597717B2, “Substituted imidazoles as PLXDC2 ligands” (Landos Biopharma, Inc., priority 2020, dated 2023)
